{
  "source": "paper PMC9309159",
  "about": "“Identification of heptapeptides targeting a lethal bacterial strain in septic mice through an integrative approach” (Signal Transduction and Targeted Therapy, 2022)",
  "key": {"[1]": {"test_system": "liver, kidney, heart and lung", "experiment": "Histopathological evaluation of organ injury in septic mice", "assay_type": "in vivo, C57BL/6 mice", "conditions": "peptide i.v. 1 h after sepsis modeling; tissues at 12 h; HE staining, injury scores; n = 6", "description": "(§1) Wild-type C57 mice were intraperitoneally injected with MSI001 bacteria (6 × 10^6 CFU/g body weight) to reproduce a sepsis model. […] Normal saline (NS) was used as control. […] One hour after CLP modeling, the mice were intravenously injected with LL37 or VTK-LL37 peptide at a dosage of 0.2 nmol/g body weight. Equal volume of normal saline (NS) was used as control. […] The mice were intraperitoneally injected with MSI001 bacteria. One hour later, the mice were subjected to tail vein injection (TVI) with VTK-LL37 (VTK-LL37 group), LL37 (LL37 group) or an equivalent volume of NS (sepsis group). Wild-type mice without modeling were used as controls (control group). The blood bacteria were quantitated as colony forming units (CFU) 12 h after injection of bacteria. n = 8. *P < 0.05, compared to control; ^#P < 0.05, compared to sepsis group^; ΔP < 0.05, compared to LL37 group. Results are expressed as the median with range. d Suppression of VTK-LL37 on the production of HMGB1 in the blood of septic mice. […] Twelve hours after bacterial injection, HMGB1 in the serum was quantitated by ELISA. n = 8. *P < 0.05, compared to control; ^#P < 0.05, compared to sepsis group; ^ΔP < 0.05, compared to LL37 group^. Results are expressed as the mean ± SD. e, f Protective effect of VTK-LL37 against organ damage in mice subjected to bacterial injection. […]"}, "E. coli MSI001": {"test_system": "E. coli MSI001", "experiment": "Biofilm detection (crystal violet, A570)", "assay_type": "cell-based, Escherichia coli", "conditions": "peptide 0-4 μmol/L, 37 °C, 3 days, A570, n = 5", "procedure": "Fig. 6 Antimicrobial activity of the C7C-LL37 fusion peptides in vitro. a Primary structures and physical properties of the C7C and LL37 fusion peptides, including LL37, VTK-LL37, LL37-VTK, KYY-LL37 and LL37-KYY, ISS-LL37, INS-LL37. Net charge, PI and GRAVY values were acquired as described above. b Inhibitory effect of C7C-LL37 fusion peptides on bacterial growth. A C7C-LL37 fusion peptide or LL37 alone was added to the cultured bacterial strain MSI001 (1 × 10^3 CFU) at final concentrations of 0.25 μmol/L, 0.5 μmol/L and 1 μmol/L. Sterile DPBS was used as control. After incubation with the C7C-LL37 or LL37 peptides at 37 °C for different times (1-8 h), bacterial colonies were counted. n = 3. *P < 0.05, VTK-LL37 group compared to LL37 group; ^#P < 0.05, LL37-VTK group compared to LL37 group. c, d Inhibitory effect of VTK-LL37 on biofilm formation. […] The biofilm was stained with 1% crystal violet, and the precipitates were dissolved in 95% ethanol, followed by detection of absorbance at 570 nm (A570) (c). […]\nWhen the OD600 of the bacterial suspension reached 1.0, the bacteria were transferred to a 96-well plate, and the VTK-LL37 or LL37 peptide was added at final concentrations of 0.5 μmol/L, 1 μmol/L, 2 μmol/L, or 4 μmol/L, followed by incubation at 37 °C. […] Bacterial biofilms were observed by microscopy and quantitated by spectrometry. […]"}, "bacterial strain MSI001": {"test_system": "bacterial strain MSI001", "experiment": "In vitro antibacterial assay (colony counting)", "assay_type": "cell-based, Escherichia coli", "conditions": "1 × 10^3 CFU, peptide 0.25, 0.5, 1 μmol/L, 37 °C, 1-8 h, colony count, n = 3", "procedure": "Fig. 6 Antimicrobial activity of the C7C-LL37 fusion peptides in vitro. a Primary structures and physical properties of the C7C and LL37 fusion peptides, including LL37, VTK-LL37, LL37-VTK, KYY-LL37 and LL37-KYY, ISS-LL37, INS-LL37. Net charge, PI and GRAVY values were acquired as described above. b Inhibitory effect of C7C-LL37 fusion peptides on bacterial growth. A C7C-LL37 fusion peptide or LL37 alone was added to the cultured bacterial strain MSI001 (1 × 10^3 CFU) at final concentrations of 0.25 μmol/L, 0.5 μmol/L and 1 μmol/L. Sterile DPBS was used as control. After incubation with the C7C-LL37 or LL37 peptides at 37 °C for different times (1-8 h), bacterial colonies were counted. n = 3. *P < 0.05, VTK-LL37 group compared to LL37 group; ^#P < 0.05, LL37-VTK group compared to LL37 group. c, d Inhibitory effect of VTK-LL37 on biofilm formation. The VTK-LL37 or LL37 peptide was added to the bacterial culture at a final concentration of 0-4 μmol/L and incubated at 37 °C for 3 days. Bacterial culture medium and the peptides were refreshed every day. The biofilm was stained with 1% crystal violet, and the precipitates were dissolved in 95% ethanol, followed by detection of absorbance at 570 nm (A570) (c). Moreover, the biofilm was observed under a microscope (d). n = 5. *P < 0.05, VTK-LL37 group compared to LL37 group […]"}, "HMGB1": {"test_system": "HMGB1", "experiment": "HMGB1 quantitation in serum of septic mice (ELISA)", "assay_type": "in vivo, C57BL/6 mice", "conditions": "peptide by tail vein 1 h after bacterial injection; serum ELISA at 12 h; n = 8", "description": "as §1"}},
  "note": "“Also recorded” adds a separate entry of the source.",
  "data": [
    {"sequence": "CVTKLGSLCVPGVGLLGDFFRKSKEKIGKEFKRIVQRIKDFLRNLVPRTES [VTK-LL37]", "values": [
      {"measurement": "sepsis-induced organ injury", "setting": "[1]", "result": "alleviated sepsis-induced injury to multiple organs, including the liver, lung, kidney and heart"},
      {"measurement": "inhibition of biofilm formation", "setting": "E. coli MSI001", "result": "inhibited biofilm formation of E. coli MSI001, and VTK-LL37 had a stronger inhibition of biofilm formation at a low dose than LL37 alone"},
      {"measurement": "inhibitory effect on bacterial growth of MSI001", "setting": "bacterial strain MSI001", "result": "inhibited MSI001 bacterial growth but also showed stronger antibiotic activity than LL37 alone in the early stage (1-3 h); also recorded: stronger bacteriostatic activity than other LL37 fusion peptides"},
      {"measurement": "production of HMGB1 in serum of septic mice", "setting": "HMGB1", "result": "significantly suppressed the production of HMGB1 in the serum of septic mice, which was superior to LL37"}
    ]}
  ]
}
